Results published in patent US10273228B2, “Hepatitis B viral assembly effectors” (Indiana University Research and Technology Corporation, priority 2015, dated 2019).
Where two headings read alike, the source gives them in different places.

Experiments:
[1] = tested on: AD38 cells; assay: AD38 viability normalized to DMSO control; format: cell-based; conditions: 10 μM compound, vs DMSO control
Procedure: (§1) AD38 cells were then re-suspended with 10 mL of treatment medium and counted. Wells of a collagen coated 96-well NUNC microtiter plate were seeded at 50,000/well in 180 μL of treatment medium, and 20 μL of either 10% DMSO (Control) or a 10× solution of test compound in 10% DMSO in treatment media was added for a final compound concentration 1, 3, or 10 μM (1.0% final [DMSO]) and plates were incubated for 6 days at 37° C.

[2] = tested on: HBV viral load, AD38 cells; assay: Activity of test compounds on viral production from AD38 cells (viral load by quantitative PCR of the core sequence in supernatant); format: cell-based, Hepatitis B virus; conditions: 10 μM compound, 6 days at 37° C., vs DMSO control wells; for activity at 10 µM: Hepatitis B virus, 144 h, read-out: AD38 Viral Load (CpAM/DMSO %) at 10 μM
Procedure: as §1
Subsequently viral load production was assayed by quantitative PCR of the core sequence. Briefly, 5 μL of clarified supernatant was added to a PCR reaction mixture that contained forward primers HBV-f 5′-CTGTGCCTTGGGTGGCTTT-3′, Reverse primers HBV-r 5′-[…]-3′ and Fluorescent TaqMan™ Probes HBV-probe 5′-FAM/AGCTCCAAA/ZEN/[…]/3IABkFQ-3′ in Quanta Biosciences PerfeCTa® qPCR Toughmix®, and was subsequently on an Applied Biosystems VIIA7 in a final volume of 20 μL. The PCR mixture was incubated at 45° C. for 5 minutes, then 95° C. for 10 min, followed by 40 cycles of 10 seconds at 95° C. and 20 seconds at 60° C. Viral load was quantitated against known standards by using ViiA™ 7 Software. Viral load in the supernatant from wells with treated cells were compared against viral load in supernatant from DMSO control wells (≥3 per plate).

CC(C)(Oc1ccc(S(=O)(=O)N2CCN(c3nc(Nc4ccc(F)cc4)cc(C(F)(F)F)n3)CC2)cc1)C(=O)O [Compound 1405, 2-(4-((4-(4-((4-fluorophenyl)amino)-6-(trifluoromethyl)pyrimidin-2-yl)piperazin-1-yl)sulfonyl)phenoxy)-2-methylpropanoic acid]
AD38 Viability Normalized Result (CPAM/DMSO %) at 10 μM ([1]; Table 9): 84% | activity at 10 µM ([2]; Table 9): 28%

COc1ccc(S(=O)(=O)N2CCN(c3nc(Nc4ccc(C)cc4)cc(NC(C)C)n3)CC2)cc1 [Compound 1231]
AD38 Viability Normalized Result (CPAM/DMSO %) at 10 μM ([1]; Table 6): 94% | activity at 10 µM ([2]; Table 6): 45%

O=S(=O)(c1ccc(F)cc1)N1CCN(c2nc(Oc3ccc(F)cc3)cc(-n3cnnc3)n2)CC1 [Compound 1307]
AD38 Viability Normalized Result (CPAM/DMSO %) at 10 μM ([1]; Table 6): 94% | activity at 10 µM ([2]; Table 6): 84%

N#Cc1ccc(Nc2cc(C(F)(F)F)nc(N3CCN(S(=O)(=O)c4ccc(OC(F)(F)F)cc4)CC3)n2)cc1 [Compound 1332]
AD38 Viability Normalized Result (CPAM/DMSO %) at 10 μM ([1]; Table 9): 85% | activity at 10 µM ([2]; Table 9): 13%

COc1ccc(S(=O)(=O)N2CCN(c3nc(C)cc(Nc4ccncc4)n3)CC2)cc1 [Compound 1240]
AD38 Viability Normalized Result (CPAM/DMSO %) at 10 μM ([1]; Table 6): 102% | activity at 10 µM ([2]; Table 6): 46%

O=S(=O)(c1cccc(C(F)(F)F)c1)N1CCN(c2nc(Nc3ccc(F)cc3)cc(-n3cnnc3)n2)CC1 [Compound 1313]
AD38 Viability Normalized Result (CPAM/DMSO %) at 10 μM ([1]; Table 6): 93% | activity at 10 µM ([2]; Table 6): 47%

Cc1cc(Nc2ccc(F)cc2)nc(N2CCN(S(=O)(=O)c3ccc(OCCCC(=O)O)cc3)CC2)n1 [Compound 1394, 4-(4-((4-(4-((4-fluorophenyl)amino)-6-methylpyrimidin-2-yl)piperazin-1-yl)sulfonyl)phenoxy) butanoic acid]
AD38 Viability Normalized Result (CPAM/DMSO %) at 10 μM ([1]; Table 9): 79% | activity at 10 µM ([2]; Table 9): 32%

CCCCOc1ccc(S(=O)(=O)N2CCN(c3nc(Nc4ccc(C#N)cc4)cc(C(F)(F)F)n3)CC2)cc1 [Compound 1334]
AD38 Viability Normalized Result (CPAM/DMSO %) at 10 μM ([1]; Table 9): 102% | activity at 10 µM ([2]; Table 9): 2%

O=S(=O)(c1ccc(OC(F)(F)F)cc1)N1CCN(c2nc(Nc3ccc(F)cc3)cc(-c3nccs3)n2)CC1 [Compound 1357]
AD38 Viability Normalized Result (CPAM/DMSO %) at 10 μM ([1]; Table 9): 95% | AD38 Viral Load (CpAM/DMSO %) at 10 μM ([2]; Table 9): 67%

CCOc1ccc(S(=O)(=O)N2CCN(c3nc(Nc4ccc(F)cc4)cc(C(F)(F)F)n3)CC2)cc1 [Compound 1341]
AD38 Viability Normalized Result (CPAM/DMSO %) at 10 μM ([1]; Table 9): 95% | activity at 10 µM ([2]; Table 9): 1%

N#Cc1ccc(Nc2cc(-c3cncs3)nc(N3CCN(S(=O)(=O)c4ccc(F)cc4)CC3)n2)cc1 [Compound 1380]
AD38 Viability Normalized Result (CPAM/DMSO %) at 10 μM ([1]; Table 9): 108% | activity at 10 µM ([2]; Table 9): 10%

CNc1cc(Nc2ccc(C)cc2)nc(N2CCN(S(=O)(=O)c3ccc(OC)cc3)CC2)n1 [Compound 1243]
AD38 Viability Normalized Result (CPAM/DMSO %) at 10 μM ([1]; Table 6): 109% | activity at 10 µM ([2]; Table 6): 32%

COc1ccc(S(=O)(=O)N2CCN(c3nc(Nc4ccc(C)cc4)cc(N(C)C(C)C)n3)CC2)cc1 [Compound 1248]
AD38 Viability Normalized Result (CPAM/DMSO %) at 10 μM ([1]; Table 6): 33% | activity at 10 µM ([2]; Table 6): 8%

COc1ccc(S(=O)(=O)N2CCN(c3nc(C)cc(Nc4ccc(-c5ccccc5)cc4)n3)CC2)cc1 [Compound 1201]
AD38 Viability Normalized Result (CPAM/DMSO %) at 10 μM ([1]; Table 6): 101% | activity at 10 µM ([2]; Table 6): 90%

COc1ccc(S(=O)(=O)N2CCN(c3nc(Nc4ccc(C)cc4)cc(N4CCOCC4)n3)CC2)cc1 [Compound 1179]
AD38 Viability Normalized Result (CPAM/DMSO %) at 10 μM ([1]; Table 6): 103% | activity at 10 µM ([2]; Table 6): 45%

Cc1ccc(Nc2cc(C)nc(N3CCN(S(=O)(=O)c4cn[nH]c4)CC3)n2)cc1 [Compound 1238]
AD38 Viability Normalized Result (CPAM/DMSO %) at 10 μM ([1]; Table 6): 102% | activity at 10 µM ([2]; Table 6): 26%

COc1ccc(S(=O)(=O)N2CCN(c3nc(C)cc(Nc4ccccn4)n3)CC2)cc1 [Compound 1215]
AD38 Viability Normalized Result (CPAM/DMSO %) at 10 μM ([1]; Table 6): 89% | activity at 10 µM ([2]; Table 6): 93%

O=C(O)CCCOc1ccc(S(=O)(=O)N2CCN(c3nc(Nc4ccc(F)cc4)cc(C(F)(F)F)n3)CC2)cc1 [Compound 1398, 4-(4-((4-(4-((4-fluorophenyl)amino)-6-(trifluoromethyl)pyrimidin-2-yl)piperazin-1-yl)sulfonyl)phenoxy) butanoic acid]
AD38 Viability Normalized Result (CPAM/DMSO %) at 10 μM ([1]; Table 9): 0% | activity at 10 µM ([2]; Table 9): 4%

COc1ccc(S(=O)(=O)N2CCN(c3nc(NCCN(C)C)cc(Nc4ccc(C)cc4)n3)CC2)cc1 [Compound 1251]
AD38 Viability Normalized Result (CPAM/DMSO %) at 10 μM ([1]; Table 6): 56% | activity at 10 µM ([2]; Table 6): 60%

CCCCOc1ccc(S(=O)(=O)N2CCN(c3nc(C)cc(Nc4ccc(F)cc4)n3)CC2)cc1 [Compound 1337]
AD38 Viability Normalized Result (CPAM/DMSO %) at 10 μM ([1]; Table 9): 93% | activity at 10 µM ([2]; Table 9): 34%
